{"source": "the NIST ThermoML archive (doi:10.1021/je900137r)", "details": "Crystal; Adiabatic calorimetry", "note": "Numbers after ± are expanded uncertainties.", "data": [{"smiles": "CCC", "note": "[propane]", "values": [{"measurement": "Triple point temperature", "value": "85.53 ± 0.039", "unit": "K"}]}]}
